Source: US4495179A, “A51568 Antibiotic and process for producing thereof” (Eli Lilly and Company, priority 1983, dated 1985)

Tests used:
Clostridium septicum = assay: Agar-dilution MIC, anaerobic bacteria (Table 10); type: cell-based; conditions: Clostridium septicum 1128
From the text: (§1) Antibiotic A51568 has been tested and found to be active against a number of anaerobic bacteria, as recorded in Table 10, which follows, the MIC values having been determined by the agar-dilution method.

Clostridium difficile [1] = assay: Agar-dilution MIC, anaerobic bacteria (Table 10); type: cell-based; conditions: Clostridium difficile 2994
From the text: as §1

Fusobacterium symbiosum = assay: Agar-dilution MIC, anaerobic bacteria (Table 10); type: cell-based; conditions: Fusobacterium symbiosum 1470
[2] = tested on: Fusobacterium necrophorum; assay: Agar-dilution MIC, anaerobic bacteria (Table 10); type: cell-based; conditions: Fusobacterium necrophorum 6054A
[3] = tested on: Streptococcus sp. Group D; assay: Standard agar-dilution assay, aerobic bacteria (Table 9); type: cell-based
Protocol: (§2) The in vitro activity of antibiotic A51568 against a number of aerobic bacteria has been determined using a standard agar-dilution assay. The results, determined by reading the end point after 24 hours, are recorded in Table 9, which follows.

Klebsiella pneumoniae = assay: as above; type: cell-based
Protocol: as §2

[4] = tested on: Staphylococcus epidermidis; assay: as above; type: cell-based
Protocol: as §2

Haemophilus influenzae [5] = assay: as above; type: cell-based
Protocol: as §2

Escherichia coli = assay: as above; type: cell-based
Protocol: as §2

Streptococcus pneumoniae [6] = assay: as above; type: cell-based; conditions: Streptococcus pneumoniae Park I, end point after 24 hours
Protocol: as §2

Streptococcus pyogenes [7] = assay: as above; type: cell-based; conditions: Streptococcus pyogenes C203, end point after 24 hours
Protocol: as §2

Staphylococcus aureus [8] = assay: as above; type: cell-based
Protocol: as §2

Clostridium perfringens = type: cell-based; conditions: Clostridium perfringens 81; Table 10
Peptococcus prevoti = assay: Agar-dilution MIC, anaerobic bacteria (Table 10); type: cell-based; conditions: Peptococcus prevoti 1281
[9] = tested on: Peptococcus asaccharolyticus; assay: Agar-dilution MIC, anaerobic bacteria (Table 10); type: cell-based; conditions: Peptococcus asaccharolyticus 1302
[10] = tested on: Peptostreptococcus intermedius; assay: Agar-dilution MIC, anaerobic bacteria (Table 10); type: cell-based; conditions: Peptostreptococcus intermedius 1264
[11] = tested on: Bacteroides melaninogenicus; assay: Agar-dilution MIC, anaerobic bacteria (Table 10); type: cell-based
Strep. pneumoniae Park I = assay: In vivo protection against experimental bacterial infection; conditions: mice, two doses subcutaneously
Protocol: (§3) Antibiotic A51568 has shown in vivo antimicrobial activity against experimental bacterial infections. When two doses of test compound were administered subcutaneously to mice in illustrative infections, the activity observed is measured as an ED50 [effective dose in mg/kg to protect fifty percent of the test animals: See Warren Wick et al., J. Bacteriol. 81, 233-235 (1961)]. The ED50 values observed for antibiotic A51568 are as follows: […]

Strep. pyogenes C203 = assay: as above; conditions: mice, two doses subcutaneously
Protocol: as §3

Staph. aureus 3055 = assay: as above; conditions: mice, Staph. aureus 3055 infection, two doses subcutaneously
Protocol: as §3

Bacteroides corrodens = assay: Agar-dilution MIC, anaerobic bacteria (Table 10); type: cell-based; conditions: Bacteroides corrodens 1874
Bacteroides vulgatis = assay: Agar-dilution MIC, anaerobic bacteria (Table 10); type: cell-based; conditions: Bacteroides vulgatis 1211
[12] = tested on: Bacteroides thetaiotaomicron; assay: Agar-dilution MIC, anaerobic bacteria (Table 10); type: cell-based; conditions: Bacteroides thetaiotaomicron 1438
[13] = tested on: Peptostreptococcus anaerobius; assay: Agar-dilution MIC, anaerobic bacteria (Table 10); type: cell-based; conditions: Peptostreptococcus anaerobius 1428
Eubacterium aerofaciens = assay: Agar-dilution MIC, anaerobic bacteria (Table 10); type: cell-based; conditions: Eubacterium aerofaciens 1235
[14] = tested on: Streptococcus sp. Group B; assay: Agar-dilution MIC, variety of bacteria (Table 8); type: cell-based
Protocol: (§4) The activity of antibiotic A51568 against a variety of bacteria, as determined by the agar-dilution method, is reported in Table 8, which follows, wherein the minimum inhibitory concentration (MIC) values are recorded.

[15] = tested on: Streptococcus sp. Group D; assay: Agar-dilution MIC, variety of bacteria (Table 8); type: cell-based
Protocol: as §4

[16] = tested on: Staphylococcus epidermidis; assay: Agar-dilution MIC, variety of bacteria (Table 8); type: cell-based
Protocol: as §4

[17] = tested on: Haemophilus parainfluenzae; assay: Agar-dilution MIC, variety of bacteria (Table 8); type: cell-based
Protocol: as §4

Haemophilus influenzae [18] = assay: Agar-dilution MIC, variety of bacteria (Table 8); type: cell-based
Protocol: as §4

Streptococcus pneumoniae [19] = assay: Agar-dilution MIC, variety of bacteria (Table 8); type: cell-based
Protocol: as §4

Streptococcus pyogenes [20] = assay: Agar-dilution MIC, variety of bacteria (Table 8); type: cell-based
Protocol: as §4

Staphylococcus aureus [21] = assay: Agar-dilution MIC, variety of bacteria (Table 8); type: cell-based
Protocol: as §4

Bacteroides fragilis = assay: Agar-dilution MIC, anaerobic bacteria (Table 10); type: cell-based
Clostridium difficile [22] = assay: Agar-dilution MIC, Clostridium difficile strains (Table 11); type: cell-based
From the text: Antibiotic A51568 is also active against a number of strains of Clostridium difficile, as determined by the agar-dilution method.

Propionibacterium acnes = assay: Agar-dilution MIC, anaerobic bacteria (Table 10); type: cell-based; conditions: Propionibacterium acnes 79

CC(C)C[C@@H](N)C(=O)N[C@@H]1C(=O)N[C@@H](CC(N)=O)C(=O)N[C@H]2C(=O)N[C@H]3C(=O)N[C@H](C(=O)N[C@H](C(=O)O)c4cc(O)cc(O)c4-c4cc3ccc4O)[C@H](O)c3ccc(c(Cl)c3)Oc3cc2cc(c3O[C@@H]2O[C@H](CO)[C@@H](O)[C@H](O)[C@H]2O[C@H]2C[C@](C)(N)C(O)[C@H](C)O2)Oc2ccc(cc2Cl)[C@H]1O (some centres unmarked) [A51568, demethylvancomycin]
2.71 mg/kg × 2: ED50 (effective dose to protect fifty percent of the test animals) (Strep. pneumoniae Park I)
32 µg/mL: MIC (Peptococcus prevoti) | MIC (Bacteroides corrodens) | MIC (Bacteroides vulgatis) | MIC [12] | MIC (Haemophilus influenzae [18]; Haemophilus influenzae 4842) | MIC (Haemophilus influenzae [18]; Haemophilus influenzae C.L.) | MIC (Haemophilus influenzae [18]; Haemophilus influenzae Mx366) | MIC (Bacteroides fragilis; Bacteroides fragilis 111) | MIC (Bacteroides fragilis; Bacteroides fragilis 1877) | MIC (Bacteroides fragilis; Bacteroides fragilis 1936B)
> 128 µg/mL: MIC (Klebsiella pneumoniae; Klebsiella pneumoniae KAE, end point after 24 hours) | MIC (Klebsiella pneumoniae; Klebsiella pneumoniae X26, end point after 24 hours) | MIC (Escherichia coli; Escherichia coli EC14, end point after 24 hours) | MIC (Escherichia coli; Escherichia coli N10, end point after 24 hours) | MIC ([11]; Bacteroides melaninogenicus 1856/28)
128 µg/mL: MIC (Haemophilus influenzae [5]; Haemophilus influenzae (resistant) R252, end point after 24 hours) | MIC (Escherichia coli; Escherichia coli TEM, end point after 24 hours) | MIC (Haemophilus influenzae [18]; Haemophilus influenzae 312) | MIC (Haemophilus influenzae [18]; Haemophilus influenzae 16836)
1 µg/mL: MIC (Clostridium septicum) | MIC ([3]; Streptococcus sp. Group D X66, end point after 24 hours) | MIC ([4]; Staphylococcus epidermidis EPI2, end point after 24 hours) | MIC (Streptococcus pyogenes [7]) | MIC (Staphylococcus aureus [8]; Staphylococcus aureus 3055, end point after 24 hours) | MIC (Staphylococcus aureus [8]; Staphylococcus aureus S13E, end point after 24 hours) | MIC (Staphylococcus aureus [8]; Staphylococcus aureus V41, end point after 24 hours) | MIC (Clostridium perfringens) | MIC [10] | MIC [13] | MIC ([15]; Streptococcus sp. Group D 8043) | MIC ([15]; Streptococcus sp. Group D 12253F) | MIC ([15]; Streptococcus sp. Group D Mx161) | MIC ([15]; Streptococcus sp. Group D X66) | MIC ([16]; Staphylococcus epidermidis 219) | MIC ([16]; Staphylococcus epidermidis 222) | MIC (Staphylococcus aureus [21]; Staphylococcus aureus V102) | MIC (Staphylococcus aureus [21]; Staphylococcus aureus V138) | MIC (Staphylococcus aureus [21]; Staphylococcus aureus V140) | MIC (Staphylococcus aureus [21]; Staphylococcus aureus X400) | MIC (Propionibacterium acnes)
16 µg/mL: MIC [9] | MIC ([11]; Bacteroides melaninogenicus 2736)
0.125 µg/mL: MIC (Streptococcus pneumoniae [19]; Streptococcus pneumoniae Park I)
3.03 mg/kg × 2: ED50 (effective dose to protect fifty percent of the test animals) (Strep. pyogenes C203)
4 µg/mL: MIC ([3]; Streptococcus sp. Group D 9960, end point after 24 hours) | MIC ([14]; Streptococcus sp. Group B 5) | MIC ([15]; Streptococcus sp. Group D 2058) | MIC ([15]; Streptococcus sp. Group D 9960)
0.5 µg/mL: MIC (Streptococcus pneumoniae [6]) | MIC ([14]; Streptococcus sp. Group B 14) | MIC (Streptococcus pneumoniae [19]; Streptococcus pneumoniae Bl-438) | MIC (Streptococcus pyogenes [20]; Streptococcus pyogenes ATCC 10389) | MIC (Streptococcus pyogenes [20]; Streptococcus pyogenes C203) | MIC (Staphylococcus aureus [21]; Staphylococcus aureus 3055)
2 µg/mL: MIC (Clostridium difficile [1]) | MIC (Fusobacterium symbiosum) | MIC [2] | MIC ([4]; Staphylococcus epidermidis EPI1, end point after 24 hours) | MIC (Staphylococcus aureus [8]; Staphylococcus aureus X400, end point after 24 hours) | MIC (Eubacterium aerofaciens) | MIC ([15]; Streptococcus sp. Group D 2041) | MIC ([15]; Streptococcus sp. Group D 9901) | MIC ([16]; Staphylococcus epidermidis 269) | MIC ([16]; Staphylococcus epidermidis 270) | MIC ([16]; Staphylococcus epidermidis 285) | MIC (Clostridium difficile [22]; Clostridium difficile 78) | MIC (Clostridium difficile [22]; Clostridium difficile 107B) | MIC (Clostridium difficile [22]; Clostridium difficile 111F) | MIC (Clostridium difficile [22]; Clostridium difficile 1153) | MIC (Clostridium difficile [22]; Clostridium difficile 2634) | MIC (Clostridium difficile [22]; Clostridium difficile 3424-5B) | MIC (Clostridium difficile [22]; Clostridium difficile 3816) | MIC (Clostridium difficile [22]; Clostridium difficile 3950D) | MIC (Clostridium difficile [22]; Clostridium difficile 6890) | MIC (Clostridium difficile [22]; Clostridium difficile 8484) | MIC (Clostridium difficile [22]; Clostridium difficile A-194) | MIC (Clostridium difficile [22]; Clostridium difficile A-195) | MIC (Clostridium difficile [22]; Clostridium difficile A-196) | MIC (Clostridium difficile [22]; Clostridium difficile A-279) | MIC (Clostridium difficile [22]; Clostridium difficile A-280) | MIC (Clostridium difficile [22]; Clostridium difficile A-281) | MIC (Clostridium difficile [22]; Clostridium difficile WAL-2112) | MIC (Clostridium difficile [22]; Clostridium difficile WAL-3657) | MIC (Clostridium difficile [22]; Clostridium difficile WAL-4268)
1.79 mg/kg × 2: ED50 (effective dose to protect fifty percent of the test animals) (Staph. aureus 3055)
64 µg/mL: MIC (Haemophilus influenzae [5]; Haemophilus influenzae (sensitive) Holt, end point after 24 hours) | MIC ([17]; Haemophilus parainfluenzae 7901) | MIC ([17]; Haemophilus parainfluenzae 9796) | MIC (Haemophilus influenzae [18]; Haemophilus influenzae 76) | MIC (Haemophilus influenzae [18]; Haemophilus influenzae Bond) | MIC (Haemophilus influenzae [18]; Haemophilus influenzae Mx371)
